System: human monocytic cell line U937
Assay: Human U937 cellular necroptosis assay
Format: cell-based
Settings: U-937; U937 cells stimulated with 25 ng/mL human TNFalpha and 25 μM z-VAD-FMK; 22 hr; viability by Cell Titer-Glo 2.0; read-out: hU937 IC50
Method: Human U937 Cellular Necroptosis Assay
The human monocytic cell line U937 (CRL-1593.2) may be purchased from ATCC. The cells are routinely maintained in RPMI-1640 Medium (Gibco, Catalog #11875-093) supplemented with 10% heat inactivated fetal bovine serum (Gibco, Catalog #16140-071), 100 units/mL penicillin and 100 μg/mL streptomycin (Gibco, Catalog #15140-122), in a humidified incubator (37° C., 5% CO2). For the assay, cells are resuspended in RPMI-1640 phenol red free Media (Gibco, Catalog #11835-030) supplemented with 10% fetal bovine serum (Sigma, Catalog #F2442), 100 units/mL penicillin and 100 ug/mL streptomycin. Cells are stimulated with 25 ng/mL human TNFalpha (Cell Sciences, Catalog #CSI15659B) and 25 μM z-VAD-FMK (R&D Systems, Catalog #FMK001) followed by seeding 5000 cells per well in a volume of 40 μL to a white, CulturPlate-384 (Perkin Elmer, Catalog #6007680). Stock solutions of the test compounds are prepared in 100% DMSO (Sigma, Catalog #D2650) and serially diluted 1:3 using 100% DMSO. Compounds are additionally diluted 1:40 in assay medium, and 10 μL/well was transferred to the plate. Following the compound addition, the plate is incubated at 37° C. and 5% CO2 for 22 hr. After 22 hr, viability is assessed with the addition of 20 μL of Cell Titer-Glo 2.0 (Promega, Catalog #G9243). The tissue culture plate is shaken on an orbital shaker at 300 RPM for 15 minutes at room temperature in the dark. Luminescence is measured using a PerkinElmer Envision™ plate reader. IC50 values are calculated using a four-parameter logistic curve fit using Genedata Screener software. Compounds disclosed herein are expected to have activity in this assay.

Structure (SMILES)	IC50 [nM]
Cc1cnc(C(=O)N[C@H]2COc3cc(C#N)ccc3N(C)C2=O)nc1-c1ccc(F)cc1 [Example 136, (S)-N-(8-cyano-5-methyl-4-oxo-2,3,4,5-tetrahydrobenzo[b]-[1,4]oxazepin-3-yl)-4-(4-fluorophenyl)-5-methylpyrimidine-2-carboxamide]	14.3
[2H]C([2H])([2H])c1cnc(C(=O)N[C@H]2COc3cc(F)cnc3N(C([2H])([2H])[2H])C2=O)nc1-c1ccccc1F [Example 169, (S)—N-(8-fluoro-5-(methyl-d3)-4-oxo-2,3,4,5-tetrahydropyrido[3,2-b][1,4]oxazepin-3-yl)-4-(2-fluorophenyl)-5-(methyl-d3)pyrimidine-2-carboxamide]	20.9
Cc1ccc(-c2nc(C(=O)N[C@H]3COc4cc(C#N)ccc4N(C)C3=O)ncc2C)cc1 [Example 137, (S)-N-(8-cyano-5-methyl-4-oxo-2,3,4,5-tetrahydrobenzo[b]-[1,4]oxazepin-3-yl)-5-methyl-4-(p-tolyl)pyrimidine-2-carboxamide]	18.8
Cc1cnc(C(=O)N[C@H]2COc3cc(Cl)cnc3N(C)C2=O)nc1C1CCC(F)(F)CO1 (stereo partly drawn) [Example 158, N-((S)-8-chloro-5-methyl-4-oxo-2,3,4,5-tetrahydro-pyrido[3,2-b][1,4]oxazepin-3-yl)-4-(5,5-difluorotetrahydro-2H-pyran-2-yl)-5-methylpyrimidine-2-carboxamide]	149
CN1C(=O)[C@@H](NC(=O)c2ncc(Cl)c(-c3cccc(C#N)c3)n2)COc2cc(Cl)cnc21 [Example 104, (S)-5-chloro-N-(8-chloro-5-methyl-4-oxo-2,3,4,5-tetrahydropyrido[3,2-b]-[1,4]oxazepin-3-yl)-4-(3-cyanophenyl)pyrimidine-2-carboxamide]	32.1
Cc1cnc(C(=O)N[C@H]2COc3cc(F)cnc3N(C)C2=O)nc1C12CCC(CC1)CC2 [Example 86, (S)-4-(bicyclo[2.2.2]octan-1-yl)-N-(8-fluoro-5-methyl-4-oxo-2,3,4,5-tetrahydro-pyrido[3,2-b][1,4]oxazepin-3-yl)-5-methylpyrimidine-2-carboxamide]	67.5
Cc1ccc(C(=O)N[C@H]2COc3cc(C#N)ccc3N(C)C2=O)nc1-c1cc(F)ccc1F [Example 41, (S)-N-(8-cyano-5-methyl-4-oxo-2,3,4,5-tetrahydro-benzo[b][1,4]oxazepin-3-yl)-6-(2,5-difluorophenyl)-5-methylpicolinamide]	594
CN1C(=O)[C@@H](NC(=O)c2ncc(Cl)c(-c3cc(F)ccc3F)n2)COc2cc(CN3CCn4ncnc4C3)ccc21 [Example 155, (S)-5-chloro-4-(2,5-difluorophenyl)-N-(8-((5,6-dihydro-[1,2,4]triazolo[1,5-a]pyrazin-7(8H)-yl)methyl)-5-methyl-4-oxo-2,3,4,5-tetrahydrobenzo[b]-[1,4]oxazepin-3-yl)pyrimidine-2-carboxamide]	24.8
COc1cc2c(cn1)N(C)C(=O)[C@@H](NC(=O)c1ncc(C)c(-c3ccccc3)n1)CC2 (stereo in doubt) [Example 11, N-(7-methoxy-1-methyl-2-oxo-2,3,4,5-tetrahydro-1H-pyrido[3,4-b]azepin-3-yl)-5-methyl-4-phenylpyrimidine-2-carboxamide]	459
CN1C(=O)[C@@H](NC(=O)c2ncc(Cl)c(-c3ccc(F)cc3F)n2)COc2ccc(N3CCOCC3)cc21 [Example 143, (S)-5-chloro-4-(2,4-difluorophenyl)-N-(5-methyl-7-morpholino-4-oxo-2,3,4,5-tetrahydrobenzo[b]-[1,4]oxazepin-3-yl)pyrimidine-2-carboxamide]	71
CN1C(=O)[C@@H](NC(=O)c2ncc(Cl)c(C3COCCO3)n2)COc2cc(Cl)cnc21 (single isomer, unassigned) [Example 163b]	87.9
Cc1cnc(C(=O)N[C@H]2COc3cc(C#N)ccc3N(C)C2=O)nc1N1CCC(F)(F)CC1 [Example 19, (S)-N-(8-cyano-5-methyl-4-oxo-2,3,4,5-tetrahydro-benzo[b][1,4]oxazepin-3-yl)-4-(4,4-difluoropiperidin-1-yl)-5-methylpyrimidine-2-carboxamide]	748
Cc1cnc(C(=O)N[C@H]2COc3cc(Cl)cnc3N(C)C2=O)nc1-c1cc(C(F)(F)F)cs1 [Example 157, (S)-N-(8-chloro-5-methyl-4-oxo-2,3,4,5-tetrahydro-pyrido[3,2-b][1,4]oxazepin-3-yl)-5-methyl-4-(4-(trifluoromethyl)thiophen-2-yl)-pyrimidine-2-carboxamide]	423
COc1cnc(C(=O)N[C@H]2COc3cc(Cl)cnc3N(C)C2=O)nc1-c1ccccc1 [Example 125, (S)-N-(8-chloro-5-methyl-4-oxo-2,3,4,5-tetrahydro-pyrido[3,2-b][1,4]oxazepin-3-yl)-5-methoxy-4-phenylpyrimidine-2-carboxamide]	128
Cc1cnc(C(=O)N[C@H]2COc3cccnc3N(C)C2=O)nc1-c1ccc(F)cc1F [Example 60, (S)-4-(2,4-difluorophenyl)-5-methyl-N-(5-methyl-4-oxo-2,3,4,5-tetrahydropyrido[3,2-b]-[1,4]oxazepin-3-yl)pyrimidine-2-carboxamide]	16.2
Cc1ccc(-c2nc(C(=O)N[C@H]3COc4cccnc4N(C)C3=O)ncc2Cl)c(F)c1 [Example 53, (S)-5-chloro-4-(2-fluoro-4-methylphenyl)-N-(5-methyl-4-oxo-2,3,4,5-tetrahydro-pyrido[3,2-b][1,4]oxazepin-3-yl)pyrimidine-2-carboxamide]	11.7
CN1C(=O)[C@@H](NC(=O)c2ncc(Cl)c(-c3ccc(F)cc3F)n2)COc2ccc(OCC(CO)CCl)cc21 (stereo partly drawn) [Example 147, 5-chloro-N-((3S)-7-(3-chloro-2-(hydroxymethyl)propoxy)-5-methyl-4-oxo-2,3,4,5-tetrahydrobenzo[b]-[1,4]oxazepin-3-yl)-4-(2,4-difluorophenyl)pyrimidine-2-carboxamide]	20.9
CN1C(=O)[C@@H](NC(=O)c2ncc(Cl)c(-c3ccccc3Cl)n2)COc2cc(Cl)cnc21 [Example 101, (S)-5-chloro-N-(8-chloro-5-methyl-4-oxo-2,3,4,5-tetrahydropyrido[3,2-b]-[1,4]oxazepin-3-yl)-4-(2-chlorophenyl)pyrimidine-2-carboxamide]	14.7
Cc1ccc(-c2nc(C(=O)N[C@H]3COc4cccnc4N(C)C3=O)ncc2C)cc1F [Example 62, (S)-4-(3-fluoro-4-methylphenyl)-5-methyl-N-(5-methyl-4-oxo-2,3,4,5-tetrahydropyrido[3,2-b]-[1,4]oxazepin-3-yl)pyrimidine-2-carboxamide]	10.4
CN1C(=O)[C@@H](NC(=O)c2ncc(Cl)c(-c3ccccc3)n2)COc2cc(F)cnc21 [Example 69, (S)-5-chloro-N-(8-fluoro-5-methyl-4-oxo-2,3,4,5-tetrahydropyrido[3,2-b]-[1,4]oxazepin-3-yl)-4-phenylpyrimidine-2-carboxamide]	7.41
Cc1cnc(C(=O)NC2CCc3cc(F)cc(F)c3NC2=O)nc1-c1ccccc1 (centres unmarked) [Example 7, N-(7,9-difluoro-2-oxo-2,3,4,5-tetrahydro-1H-benzo[b]azepin-3-yl)-5-methyl-4-phenylpyrimidine-2-carboxamide]	22.2
CN1C(=O)[C@@H](NC(=O)c2ncc(Cl)c(-c3cncnc3)n2)COc2cc(Cl)cnc21 [Example 111, (S)-5-chloro-N-(8-chloro-5-methyl-4-oxo-2,3,4,5-tetrahydropyrido[3,2-b]-[1,4]oxazepin-3-yl)-[4,5′-bipyrimidine]-2-carboxamide]	485
Cc1cnc(C(=O)N[C@H]2COc3cc(C#N)ccc3N(C)C2=O)nc1-c1ccc(F)cc1F [Example 38, (S)-N-(8-cyano-5-methyl-4-oxo-2,3,4,5-tetrahydro-benzo[b][1,4]oxazepin-3-yl)-4-(2,4-difluorophenyl)-5-methyl-pyrimidine-2-carboxamide]	18.9
Cc1cnc(C(=O)N[C@H]2COc3cc(Cl)cnc3N(C)C2=O)nc1-c1ccncc1F [Example 120, (S)-N-(8-chloro-5-methyl-4-oxo-2,3,4,5-tetrahydro-pyrido[3,2-b][1,4]oxazepin-3-yl)-4-(3-fluoropyridin-4-yl)-5-methylpyrimidine-2-carboxamide]	134
CN1C(=O)[C@@H](NC(=O)c2ncc(Cl)c([C@@H]3COCCO3)n2)COc2cc(Cl)cnc21 [Example 163a, 5-chloro-N—((S)-8-chloro-5-methyl-4-oxo-2,3,4,5-tetrahydropyrido[3,2-b][1,4]oxazepin-3-yl)-4-((R)-1,4-dioxan-2-yl)pyrimidine-2-carboxamide]	172
Cc1ccc(-c2nc(C(=O)N[C@H]3COc4cc(C#N)ccc4N(C)C3=O)ncc2C)cc1F [Example 1, (S)—N-(8-cyano-5-methyl-4-oxo-2,3,4,5-tetrahydrobenzo[b][1,4]oxazepin-3-yl)-4-(3-fluoro-4-methylphenyl)-5-methylpyrimidine-2-carboxamide]	12.4
